Experimental data from paper PMC4450297, “Screening Active Compounds from Garcinia Species Native to China Reveals Novel Compounds Targeting the STAT/JAK Signaling Pathway” (BioMed Research International, 2015).

How the values were obtained:
Assay in all cases: Cell panel screen (CellTiter-Glo)
Type in all cases: cell-based, human
A498 = A498 (listed under Lung), 20 micromolar, 72 hrs
Protocol: (§1) All cells were obtained from the cell bank of the American Type Culture Collection (ATCC) and cultured in the supplier's recommended media supplemented with 10% FBS. The cell panel screen was measured using the CellTiter-Glo assay (Promega, Madison, WI) following a standard protocol. Briefly, cancer cells were seeded in 96-well plates and cultured overnight at 37°C with or without 5% CO2 in an incubator. Each compound was dissolved with limited DMSO and diluted to a certain concentration with culture medium and then added to the corresponding well of the cell plate. The final concentration of compound was 20 μM. The control cells (without treatment) received the same amount of DMSO and were incubated under the same conditions. After 72 h cultivation, 100 μL of the CellTiter-Glo reagent was added directly to each well for 10-minute incubation. The plate was then read on a FlexStation 3 microplate luminometer (Molecular Devices, USA) to monitor the luminescence signal generated by the luciferase-catalyzed reaction of luciferin and ATP. The percent of growth inhibition was calculated using the following formula: (untreated cells − treated cells)/(untreated cells − background without cells) ∗ 100.

A704 = A704 (Kidney), 20 micromolar, 72 hrs
Protocol: as §1

BT-474 = BT-474 (Breast), 20 micromolar, 72 hrs
Protocol: as §1

BT-549 = BT-549 (Breast), 20 micromolar, 72 hrs
Protocol: as §1

Bel-7402 = Bel-7402 (Liver), 20 micromolar, 72 hrs
Protocol: as §1

C3A = C3A (Liver), 20 micromolar, 72 hrs
Protocol: as §1

C8166 = C8166 (Leukemia), 20 micromolar, 72 hrs
Protocol: as §1

CCF-STTG1 = CCF-STTG1 (Brain), 20 micromolar, 72 hrs
Protocol: as §1

CW-2 = CW-2 (Colon), 20 micromolar, 72 hrs
Protocol: as §1

ChaGo-K-1 = ChaGo-K-1 (Lung), 20 micromolar, 72 hrs
Protocol: as §1

Colo 205 = details: Colo 205, 20 micromolar, 72 hrs
Protocol: as §1

HCC1395 = HCC1395 (Breast), 20 micromolar, 72 hrs
Protocol: as §1

HCC1569 = HCC1569 (Breast), 20 micromolar, 72 hrs
Protocol: as §1

HCC1599 = HCC1599 (Breast), 20 micromolar, 72 hrs
Protocol: as §1

HCC1937 = HCC1937 (Breast), 20 micromolar, 72 hrs
Protocol: as §1

HEC-1-A = HEC-1-A (Uterus), 20 micromolar, 72 hrs
Protocol: as §1

HGC-27 = HGC-27 (Stomach), 20 micromolar, 72 hrs
Protocol: as §1

HPAF-II = HPAF-II (Pancreas), 20 micromolar, 72 hrs
Protocol: as §1

HT-1197 = HT-1197 (Urinary bladder), 20 micromolar, 72 hrs
Protocol: as §1

J82 = J82 (Urinary bladder), 20 micromolar, 72 hrs
Protocol: as §1

M059J = M059J (Brain), 20 micromolar, 72 hrs
Protocol: as §1

MSTO-211-H = MSTO-211-H (Lung), 20 micromolar, 72 hrs
Protocol: as §1

NCI-H1623 = NCI-H1623 (Lung), 20 micromolar, 72 hrs
Protocol: as §1

NCI-H1694 = NCI-H1694 (Lung), 20 micromolar, 72 hrs
Protocol: as §1

NCI-H1770 = NCI-H1770 (Lung), 20 micromolar, 72 hrs
Protocol: as §1

NCI-H2347 = NCI-H2347 (Lung), 20 micromolar, 72 hrs
Protocol: as §1

NCI-H2405 = NCI-H2405 (Lung), 20 micromolar, 72 hrs
Protocol: as §1

NCI-H28 = NCI-H28 (Lung), 20 micromolar, 72 hrs
Protocol: as §1

NCI-H524 = NCI-H524 (Lung), 20 micromolar, 72 hrs
Protocol: as §1

Panc 03.27 = Panc 03.27 (Pancreas), 20 micromolar, 72 hrs
Protocol: as §1

RL95 = RL95 (Uterus), 20 micromolar, 72 hrs
Protocol: as §1

SW13 = SW13 (Adrenal gland), 20 micromolar, 72 hrs
Protocol: as §1

T47D = T47D (Breast), 20 micromolar, 72 hrs
Protocol: as §1

T98G = T98G (Brain), 20 micromolar, 72 hrs
Protocol: as §1

TCCSUP = TCCSUP (Urinary bladder), 20 micromolar, 72 hrs
Protocol: as §1

ZR-75-30 = ZR-75-30 (Breast), 20 micromolar, 72 hrs
Protocol: as §1

| SMILES | Percent Inhibition (A498) [%] | Percent Inhibition (A704) [%] | Percent Inhibition (BT-474) [%] | Percent Inhibition (BT-549) [%] | Percent Inhibition (Bel-7402) [%] | Percent Inhibition (C3A) [%] | Percent Inhibition (C8166) [%] | Percent Inhibition (CCF-STTG1) [%] | Percent Inhibition (CW-2) [%] | Percent Inhibition (ChaGo-K-1) [%] | Percent Inhibition (Colo 205) [%] | Percent Inhibition (HCC1395) [%] | Percent Inhibition (HCC1569) [%] | Percent Inhibition (HCC1599) [%] | Percent Inhibition (HCC1937) [%] | Percent Inhibition (HEC-1-A) [%] | Percent Inhibition (HGC-27) [%] | Percent Inhibition (HPAF-II) [%] | Percent Inhibition (HT-1197) [%] | Percent Inhibition (J82) [%] | also measured |
| --- | --- | --- | --- | --- | --- | --- | --- | --- | --- | --- | --- | --- | --- | --- | --- | --- | --- | --- | --- | --- | --- |
| COc1c(O)c(O)c2c(=O)c3c(CC=C(C)C)c(CC=C(C)C)c(O)c(O)c3oc2c1CC=C(C)C [Compound N-7] | 13 | 1 | -21 | -14 | 15 | 24 | 10 | 6 | 22 | 4 | 9 | 22 | 5 | 8 | -5 | -17 | 0 | 9 | 13 | 17 | Percent Inhibition (M059J): 10%; Percent Inhibition (MSTO-211-H): -1%; Percent Inhibition (NCI-H1623): -8%; Percent Inhibition (NCI-H1694): 25%; Percent Inhibition (NCI-H1770): -6%; Percent Inhibition (NCI-H2347): -18%; Percent Inhibition (NCI-H2405): -7%; Percent Inhibition (NCI-H28): 21%; Percent Inhibition (NCI-H524): -30%; Percent Inhibition (Panc 03.27): -24%; Percent Inhibition (RL95): -16%; Percent Inhibition (SW13): -14%; Percent Inhibition (T47D): -9%; Percent Inhibition (T98G): 17%; Percent Inhibition (TCCSUP): 18%; Percent Inhibition (ZR-75-30): -11% |
| CC(C)=CCC[C@@]1(C)C=Cc2c(O)c3c(c(CC=C(C)C)c2O1)O[C@]12C(=C[C@@H]4C[C@H]1C(C)(C)O[C@@]2(C/C=C(/C)C(=O)O)C4=O)C3=O [GB11] | 98 | 98 | 98 | 99 | 98 | 98 | 99 | 98 | 98 | 98 | 98 | 98 | 99 | 99 | 98 | 99 | 98 | 98 | 98 | 98 | Percent Inhibition (M059J): 98%; Percent Inhibition (MSTO-211-H): 98%; Percent Inhibition (NCI-H1623): 98%; Percent Inhibition (NCI-H1694): 99%; Percent Inhibition (NCI-H1770): 98%; Percent Inhibition (NCI-H2347): 98%; Percent Inhibition (NCI-H2405): 98%; Percent Inhibition (NCI-H28): 99%; Percent Inhibition (NCI-H524): 97%; Percent Inhibition (Panc 03.27): 99%; Percent Inhibition (RL95): 99%; Percent Inhibition (SW13): 98%; Percent Inhibition (T47D): 99%; Percent Inhibition (T98G): 99%; Percent Inhibition (TCCSUP): 99%; Percent Inhibition (ZR-75-30): 99% |
| CC(C)=CCC/C(C)=C/Cc1c(O)c(CC=C(C)C)c2c(c1O)C(=O)C1=C[C@@H]3C[C@H]4C(C)(C)O[C@@](C/C=C(/C)C(=O)O)(C3=O)[C@@]14O2 [GB16] | 100 | 99 | 99 | 99 | 99 | 99 | 100 | 99 | 99 | 99 | 99 | 99 | 99 | 100 | 100 | 99 | 100 | 98 | 99 | 99 | Percent Inhibition (M059J): 99%; Percent Inhibition (MSTO-211-H): 100%; Percent Inhibition (NCI-H1623): 99%; Percent Inhibition (NCI-H1694): 100%; Percent Inhibition (NCI-H1770): 100%; Percent Inhibition (NCI-H2347): 98%; Percent Inhibition (NCI-H2405): 99%; Percent Inhibition (NCI-H28): 99%; Percent Inhibition (NCI-H524): 98%; Percent Inhibition (Panc 03.27): 99%; Percent Inhibition (RL95): 99%; Percent Inhibition (SW13): 99%; Percent Inhibition (T47D): 99%; Percent Inhibition (T98G): 99%; Percent Inhibition (TCCSUP): 100%; Percent Inhibition (ZR-75-30): 100% |
